Data reported in patent US20220105157A1, “Compositions and Methods for Promoting Angiogenesis in the Eye” (The Regents of the University of California, priority 2019, published 2022).

Tests used:
BAE cells [1] = test: Gene and protein expression in LIF-treated BAE cells (RNA-seq, qRT-PCR, cathepsin L ELISA); format: cell-based, bovine
Method: VEGF and LIF levels in LN-229 CM samples were determined by a human VEGF ELISA kit (R&D Systems, CAT #DVE00) and a human LIF ELISA kit (Biolegend, CAT #443507) according to manufacturers' instructions, respectively. Cathepsin L levels in BAE cells were measured using a bovine cathepsin L ELISA kit (MyBioSource, Inc, CAT #MBS2887609) per manufacturer's instructions.
(§1) BCE and BAE cells, after the indicated treatments, were lysed with Trizol reagent (Invitrogen, CAT #15596026) and subjected to RNA extraction following manufacturer's instructions. RNA concentrations were determined with Nanodrop 2000 (ThermoFisher Scientific) and 1 μg of total RNAs were reverse-transcribed to cDNAs using the High-Capacity cDNA Reverse Transcription Kit (Applied Biosystems, CAT #4368814). Equal amounts (generally 10 ng/reaction) of cDNAs were subjected to qRT-PCR analyses using the TaqMan Fast Advanced Master Mix (Applied Biosystems, CAT #4444557) and the ViiA7 Real-time PCR system. Relative mRNA levels of the examined genes were normalized to the internal control RPLP0 (Ribosomal Protein Lateral Stalk Subunit P0), determined by comparing with control sample group, and reported as fold changes. TaqMan gene expression assay probes were used: bovine RPLP0 (Bt03218086_ml), bovine STAT3 (Bt03259865_ml), bovine CTSL1 (Bt03257307_ml and Bt03257309_ml), bovine CTSB (Bt03259161_ml), bovine MYC (Bt03260377_ml), bovine JunB (Bt03246919_s1), bovine CCNA2 (Bt03240503_g1), bovine CCNB1 (Bt03237853_g1), and bovine PIM1 (Bt03212957_ml). The experiment was carried out in triplicate and repeated three times.

BCE cells = test: Gene expression in LIF-treated BCE cells (RNA-seq, qRT-PCR); format: cell-based, bovine
Method: as §1

BAE cells [2] = test: Annexin V staining for cell death; format: cell-based, bovine; details: BAE cells treated with LIF (10 ng/ml) for 24 hours
Method: BAE cells were plated at a density of 2×10^4 cells/well with 1 ml of culture medium (DMEM-low glucose plus 10% BCS) in 12-well plates and then incubated at 37° C. overnight. After removal of culture medium, cells were incubated in 0.5 ml of DMEM-low glucose plus 1% BCS. LIF (10 ng/ml) and vehicle control (0.1% BSA in PBS) were added to the cells. Following LIF treatment for 24 hours, cells were examined for cell death marker Annexin V using Annexin V-Cy5 Apoptosis Staining Detection Kit (Abcam, CAT #ab14150) according to manufacturer's instructions. Briefly, cell culture medium was removed and 0.5 ml of Annexin V binding solution was laid over onto the cells. Cells were incubated at room temperature for 5 min following addition of 5 μl of Annexin V-Cy5. Then, the staining solution was discarded and replaced with 0.5 ml of Annexin V binding solution. Imaging of Annexin V staining were performed using Keyence Microscope BZ-X710 (Keyence Corporation, Osaka, Japan). Four random fields were selected and the percentages of Annexin V-staining area in total cell-covered area as indicatives for cell death were determined using ImageJ software. The experiment was carried out in triplicate and repeated three time.

[3] = tested on: phosphorylation of STAT3, ERK and AKT in BAE cells; test: Western blotting of LIF signaling in BAE cells; format: cell-based, bovine; details: LIF treatment for 15 minutes
Method: BCE and BAE cells were cultured in growth medium overnight. Growth medium was removed and then cells were washed twice with PBS. Recombinant human LIF was added to cells for 15 minutes, following 3-hour incubation in the following medium: DMEM-low glucose supplemented with 10% BCS, 2 mM glutamine and antibiotics for BCE cells, and DMEM-low glucose supplemented with 1% BCS and antibiotics for BAE cells. […] Cells were then lysed with RIPA lysis buffer (Life Technologies, CAT #89901) plus protease and phosphatase inhibitor cocktail (ThermoFisher Scientific CAT #78440). Protein concentrations in cell lysates were measured with the BCA assay (ThermoFisher Scientific CAT #23227). Equal amount of proteins were subjected to electrophoresis in NuPAGE 4-12% Bis-Tris gels (ThermoFisher Scientific, CAT #NW04125BOX) and then transferred onto PVDF membranes. Membranes were blocked with 5% non-fat milk in TBST at room temperature for 1 hour, incubated with primary antibodies indicated below in TBST containing 0.5% non-fat milk at 4° C. overnight then with secondary HRP-conjugated antibodies (1:2000, GE Healthcare) at room temperature for 1 h. Signals were developed with SuperSignal™ West Pico PLUS Chemiluminescent Substrate (ThermoFisher Scientific). Primary antibodies used: anti-phospho-STAT3 (Cell Signaling, CAT #9131, 1:3000), anti-STAT3 (Cell Signaling, CAT #4904, 1:3000), anti-phospho-ERK (Cell Signaling, CAT #4376, 1:5000), anti-ERK (Cell Signaling, CAT #4695, 1:5000), anti-phospho-AKT Ser473 (Cell Signaling, CAT #4060, 1:2000), anti-AKT (Cell Signaling, CAT #4691, 1:2000) and HRP-conjugated anti-beta-actin (Sigma, CAT #AC-15, 1; 10000).

[4] = tested on: bovine retinal endothelial (BRE) cells; test: BRE endothelial cell proliferation assay (alamar blue); format: cell-based
Method: (§2) The bovine endothelial proliferation assays were performed essentially as previously described (63, 64). BCE (1×10^3 cells/well) or BRE (5×10^2 cells/well) cells were seeded in 96-well plates in the culture medium (DMEM-low glucose supplemented with 10% BCS, 2 mM glutamine and antibiotics) plus testing materials with a total volume of 200 μl per well. BAE cells were plated in 96-well plates at a density of 2×10^3 cells in the culture medium (DMEM-low glucose supplemented with 1% BCS and antibiotics) plus testing material with a total volume of 200 μl per well. HRME cells were seeded at a density of 1×10^3 cells/well in gelatin-coated 96-well plates in assay medium (DMEM-low glucose supplemented with 20% FBS and antibiotics) plus testing materials to make a total volume 200 μl per well. For assays involving antibodies or small-molecule inhibitors, inhibitors or vehicle controls were first added and then test materials were added one hour later. After 6 days (unless otherwise specified), cells were incubated with alamar blue for 4 h. Fluorescence was measured at 530 nm excitation wavelength and 590 nm emission wavelength. Each experiment was carried out in duplicate/triplicate and repeated at least three times.

[5] = tested on: bovine aortic endothelial (BAE) cells; test: BAE endothelial cell proliferation assay (alamar blue); format: cell-based
Method: as §2

## LIF: recombinant human leukemia inhibitory factor, a member of the IL-6 family of cytokines
BAE cells [1]; BAE cells incubated with LIF for 6 hours, RNA-seq, confirmed by qRT-PCR
  upregulation of IGFBP3: approximately 8 fold
BAE cells [1]; BAE cells, LIF 10 ng/ml 24 hours, qRT-PCR
  cyclin A/B expression: downregulation
BAE cells [1]; BAE cells, LIF 24 hours
  CTSB (cathepsin B) levels: not CTSB
  CTSL (cathepsin L) mRNA and protein levels: dramatically upregulated
BAE cells [1]; BAE cells, LIF treatment
  PIM1 expression: induction
BCE cells; BCE cells incubated with LIF for 6 hours, RNA-seq
  upregulation of IGFBP3: not in BCE cells
BCE cells; BCE cells, LIF treatment
  MYC expression: upregulation
BCE cells; BCE cells, vehicle or LIF, qRT-PCR
  cathepsin L mRNA (CTSL) levels: not detectable
BAE cells [2]
  Annexin V positive cells (cell death marker): increased proportion of cells were Annexin V positive
[3]
  phosphorylation of AKT: led to phosphorylation
  phosphorylation of ERK (MAPK): led to phosphorylation
  phosphorylation of STAT3: led to phosphorylation
[4]
  mitogenic activity on BRE cells: exerted mitogenic activity
[5]
  BAE cell growth: growth inhibition
